Test results from PMC2364994, “Complexes With Biologically Active Ligands. Part 1. Synthesis of Coordination Compounds of Diazoxide With Transition- and Main-Group Cations” (Metal-Based Drugs, 1996).

What was measured:
human CA I = target: T1, human CA I (Homo sapiens, UniProt P00915); experiment: Maren's micromethod, CO2 hydration; assay type: biochemical; details: 0 °C, veronal buffer; E-I technique; unit shows as (M) in the extracted table, text says micromolar range
T1 construct: gene CA1; commercial enzyme (Sigma Chemical Co.); isozyme described as erythrocyte CA
T1 sequence (P00915 2-261): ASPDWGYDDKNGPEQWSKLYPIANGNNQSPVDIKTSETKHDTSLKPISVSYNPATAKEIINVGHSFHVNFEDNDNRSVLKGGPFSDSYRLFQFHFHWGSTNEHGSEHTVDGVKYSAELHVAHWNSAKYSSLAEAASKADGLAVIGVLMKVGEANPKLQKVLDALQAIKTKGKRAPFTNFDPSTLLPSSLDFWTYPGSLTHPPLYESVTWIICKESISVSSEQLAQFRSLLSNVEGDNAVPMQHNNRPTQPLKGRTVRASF

Bovine CA II = target: T2, Bovine CA II (Bos taurus, UniProt P00921); experiment: Maren's micromethod, CO2 hydration; assay type: biochemical; details: 0 °C, veronal buffer; E-I technique; unit shows as (M) in the extracted table, text says micromolar range
T2 construct: gene CA2; commercial enzyme (Sigma Chemical Co.); isozyme described as erythrocyte CA
T2 sequence (P00921 2-260): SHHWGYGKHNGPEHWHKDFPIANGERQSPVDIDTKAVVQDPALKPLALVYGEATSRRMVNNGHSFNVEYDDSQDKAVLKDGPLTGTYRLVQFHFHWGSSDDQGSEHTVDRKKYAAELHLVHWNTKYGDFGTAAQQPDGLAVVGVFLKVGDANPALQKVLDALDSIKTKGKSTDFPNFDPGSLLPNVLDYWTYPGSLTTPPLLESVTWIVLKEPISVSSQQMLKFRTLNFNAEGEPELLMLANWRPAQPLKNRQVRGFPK

Substance | IC50 (human CA I) [M] | IC50 (Bovine CA II) [M]
[PDZO)(OH)a].2HO [compound 14] | 7.2e-05 | 6e-05
[VO(DZO)(OH)].HO [compound 17] | 0.000105 | 0.000125
